Values quoted from earlier work, collected in article PMC8364686, “Safety, tolerability, pharmacokinetics and pharmacodynamics of single oral doses of BI 187004, an inhibitor of 11beta-hydroxysteroid dehydrogenase-1, in healthy male volunteers with overweight or obesity” (Clinical Diabetes and Endocrinology, 2021).
Read-outs that look alike come from different tables or passages of the source.

Columns and labels:
11beta-HSD1 in AT = settings: single dose, cited from earlier work
11beta-HSD1 = settings: cited from earlier work

**Q.** With `CC(C)[C@]1(C)SC(=N[C@H]2C[C@@H]3CC[C@H]2C3)NC1=O` [AMG 221] as the compound, how does the “11beta-HSD1 inhibition in AT” value (11beta-HSD1 in AT; 24-h study duration) read?
**A.** > 90%

**Q.** For `CCCSc1nc(N2CCC[C@@H](CC(=O)O)C2)ccc1C(=O)NC1CCCCC1` [AZD4017], which “Maximum decrease in urinary (aTHF + THF)/THE ratio” value (11beta-HSD1; highest dose of 900 mg, after 9 days) is on record?
**A.** 92%

**Q.** With `C[C@@H](c1ccc(-c2ccn(C)c(=O)c2)cc1)N1CC[C@](CC(C)(C)O)(c2ccccc2)OC1=O` [BI 135585] as the compound, how does the “11beta-HSD1 inhibition in AT” value (11beta-HSD1 in AT; 24 h after dosing) read?
**A.** 90%

**Q.** Which “Maximum decrease in urinary (aTHF + THF)/THE ratio” value (11beta-HSD1; after 14 days of treatment) does the source give for `N#Cc1ccc(-c2ccc(S(=O)(=O)Nc3cccc(N)n3)cc2)cc1` [PF-915275] here?
**A.** 26%
